The values below come from patent US20190216712A1, “Hair dye composition, preparation method, and application method thereof” (SHANGHAI CLINICAL ENGINE TECHNOLOGY DEVELOPMENT CO., LTD., priority 2017, published 2019).

The subject of the data set is human epithelial-derived cells (293T). Kind of data set: CCK-8 test of killing ability to cells (Embodiment 14). The format is cell-based. As to the method:
According to embodiments 1-3, water-soluble pigment solubilizing carrier dye was prepared, while cationic carrier ([…]) was used. First, human epithelial-derived cells (293T) were cultured, which was divided into three groups corresponding to a polyethyleneimine-co-isopropylacrylamide (water-soluble pigment solubilizing carrier) group, a polyethyleneimine-co-isopropylacrylamide (a water-soluble pigment solubilizing carrier) dye, and a commercially available cationic carrier group; the cells were cultured with commercially available cell culture medium ([…]) for 24 hours to obtain cells in the logarithmic growth phase; at this time, the same concentration gradient of polyethyleneimine-co-isopropylacrylamide (water-soluble pigment solubilizing carrier), polyethyleneimine-co-isopropylacrylamide (a water-soluble pigment solubilizing carrier)-pigment, and commercially available cationic carrier were added to the culture dishes of the three groups of cells; after 24 hours of culture, the CCK-8 test kit was used to examine the killing ability of the three groups of systems to the cells.

Where two headings read alike, the source gives them in different places.

Take `CCCCCCCCCCCCOS(=O)(=O)[O-].[Na+]` [commercially available cationic carrier, sodium lauryl sulfate]: the damage of cells result (293T cells, concentration gradient, 24 hours of culture) is recorded as “cell death was rapid”.

In the case of “polyethyleneimine-co-isopropylacrylamide”, the damage of cells result is reported as “hardly damaged”.
